Reference: ChEMBL document CHEMBL1201862, “PubChem BioAssay data set” (2004)
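Each compound was tested at five concentrations against cells in 96-well plates for 48 hours. GI50: concentration for 50% inhibition of growth.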 Calls of active or inactive are those of the source. Cut-off read from the data, not from the text of the source: active = GI50 up to about 1.1 µM and inactive = higher.

Tests used:
Assay in all cases: inhibition of tumour cell growth, NCI panel, 48 h
HCT-116 = system: HCT-116
HOP-18 = system: HOP-18
NCI-H226 = system: NCI-H226
MOLT-4 = system: MOLT-4
XF498 = system: XF498
Malme-3M = system: Malme-3M
HOP-62 = system: HOP-62
SN12C = system: SN12C
SR = system: SR
SK-MEL-28 = system: SK-MEL-28
DLD-1 = system: DLD-1
786-0 = system: 786-0
M14 = system: M14
KM12 = system: KM12
OVCAR-8 = system: OVCAR-8
TK-10 = system: TK-10
IGROV-1 = system: IGROV-1
A498 = system: A498
RXF 631 = system: RXF 631
A549 = system: A549
SK-MEL-5 = system: SK-MEL-5
OVCAR-3 = system: OVCAR-3
K562 = system: K562
NCI-H522 = system: NCI-H522
SF-268 = system: SF-268
SK-OV-3 = system: SK-OV-3
CAKI-1 = system: CAKI-1
LOX IMVI = system: LOX IMVI
NCI-H460 = system: NCI-H460
UACC-62 = system: UACC-62
NCI-H23 = system: NCI-H23
SNB-78 = system: SNB-78
U-251 = system: U-251
HT-29 = system: HT-29
CCRF-CEM = system: CCRF-CEM
SF-539 = system: SF-539
RPMI-8226 = system: RPMI-8226
UO-31 = system: UO-31
SNB-19 = system: SNB-19
ACHN = system: ACHN
KM-20L2 = system: KM-20L2
UACC-257 = system: UACC-257
M19-MEL = system: M19-MEL
DMS-273 = system: DMS-273
COLO 205 = system: COLO 205
SF-295 = system: SF-295
HOP-92 = system: HOP-92
SW-620 = system: SW-620
HL-60 = system: HL-60
SNB-75 = system: SNB-75
LXFL 529 = system: LXFL 529
SK-MEL-2 = system: SK-MEL-2
HCC 2998 = system: HCC 2998
HCT-15 = system: HCT-15
OVCAR-5 = system: OVCAR-5
DMS-114 = system: DMS-114
EKVX = system: EKVX
RXF 393 = system: RXF 393
OVCAR-4 = system: OVCAR-4

In the case of Cc1cn(C2C=CC(=O)C(C)O2)c(=O)[nH]c1=O (configuration not stated), the GI50 (HCT-116) is reported as 12.2 µM (inactive), the GI50 (HOP-18) is reported as 15 µM (inactive) and the GI50 (NCI-H226) is reported as 19.5 µM (inactive). The GI50 (MOLT-4) was 18 µM (inactive), the GI50 (XF498) was 13.5 µM (inactive) and the GI50 (Malme-3M) was 13.2 µM (inactive). The GI50 (HOP-62) was 20.6 µM (inactive), the GI50 (SN12C) was 15.9 µM (inactive) and the GI50 (SR) was 18.3 µM (inactive). The GI50 (SK-MEL-28) was 14.9 µM (inactive), the GI50 (DLD-1) was 14.1 µM (inactive) and the GI50 (786-0) was 18 µM (inactive). For the same compound, the GI50 (M14) was 15.3 µM (inactive), the GI50 (KM12) was 16.1 µM (inactive) and the GI50 (OVCAR-8) was 18.6 µM (inactive). For the same compound, the GI50 (TK-10) was 15.1 µM (inactive), the GI50 (IGROV-1) was 18 µM (inactive) and the GI50 (A498) was 38.1 µM (inactive). The GI50 (RXF 631) was 15.2 µM (inactive), the GI50 (A549) was 39 µM (inactive) and the GI50 (SK-MEL-5) was 14.7 µM (inactive). The GI50 (OVCAR-3) was 17.4 µM (inactive), the GI50 (K562) was 10.6 µM (inactive) and the GI50 (NCI-H522) was 16.6 µM (inactive). The GI50 (SF-268) was 18.2 µM (inactive), the GI50 (SK-OV-3) was 33.8 µM (inactive) and the GI50 (CAKI-1) was 16.7 µM (inactive). The GI50 (LOX IMVI) was 13.2 µM (inactive), the GI50 (NCI-H460) was 17.9 µM (inactive) and the GI50 (UACC-62) was 15.7 µM (inactive). For the same compound, the GI50 (NCI-H23) was 18.1 µM (inactive), the GI50 (SNB-78) was 16.7 µM (inactive) and the GI50 (U-251) was 15.3 µM (inactive). For the same compound, the GI50 (HT-29) was 17.1 µM (inactive), the GI50 (CCRF-CEM) was 6.07 µM (inactive) and the GI50 (SF-539) was 18.7 µM (inactive). For the same compound, the GI50 (RPMI-8226) was 20.5 µM (inactive), the GI50 (UO-31) was 14.5 µM (inactive) and the GI50 (SNB-19) was 21 µM (inactive). The GI50 (ACHN) was 17.5 µM (inactive), the GI50 (KM-20L2) was 16.3 µM (inactive) and the GI50 (UACC-257) was 14 µM (inactive). For the same compound, the GI50 (M19-MEL) was 15.8 µM (inactive), the GI50 (DMS-273) was 18.1 µM (inactive) and the GI50 (COLO 205) was 17.5 µM (inactive). For the same compound, the GI50 (SF-295) was 17.5 µM (inactive), the GI50 (HOP-92) was 15.9 µM (inactive) and the GI50 (SW-620) was 15.1 µM (inactive). For the same compound, the GI50 (HL-60) was 14.7 µM (inactive), the GI50 (SNB-75) was 15.5 µM (inactive) and the GI50 (LXFL 529) was 14.8 µM (inactive).
In the case of O=C1C2C3C=C4c5ccccc5N(c5ccccc5)C4(C2C(=O)N1c1ccccc1)C1C(=O)N(c2ccccc2)C(=O)C31 (configuration not stated), the GI50 (HCT-116) is reported as > 100 µM (inactive), the GI50 (HOP-18) is reported as > 100 µM (inactive) and the GI50 (MOLT-4) is reported as 3.3 µM (inactive). For the same compound, the GI50 (XF498) was 37 µM (inactive), the GI50 (Malme-3M) was 7.67 µM (inactive) and the GI50 (HOP-62) was > 100 µM (inactive). The GI50 (SN12C) was > 100 µM (inactive), the GI50 (SR) was 6.35 µM (inactive) and the GI50 (SK-MEL-28) was 8.17 µM (inactive). For the same compound, the GI50 (DLD-1) was > 100 µM (inactive), the GI50 (786-0) was > 100 µM (inactive) and the GI50 (M14) was > 100 µM (inactive). The GI50 (KM12) was > 100 µM (inactive), the GI50 (OVCAR-8) was > 100 µM (inactive) and the GI50 (TK-10) was > 100 µM (inactive). The GI50 (IGROV-1) was > 10 µM (inactive), the GI50 (A498) was 2.34 µM (inactive) and the GI50 (RXF 631) was > 100 µM (inactive). For the same compound, the GI50 (A549) was > 100 µM (inactive), the GI50 (K562) was > 100 µM (inactive) and the GI50 (SF-268) was > 100 µM (inactive). The GI50 (SK-OV-3) was > 10 µM (inactive), the GI50 (CAKI-1) was > 100 µM (inactive) and the GI50 (LOX IMVI) was > 100 µM (inactive). For the same compound, the GI50 (NCI-H460) was 4.05 µM (inactive), the GI50 (UACC-62) was 3.61 µM (inactive) and the GI50 (NCI-H23) was > 100 µM (inactive). The GI50 (SNB-78) was > 100 µM (inactive), the GI50 (U-251) was > 100 µM (inactive) and the GI50 (HT-29) was 6.56 µM (inactive). For the same compound, the GI50 (CCRF-CEM) was 8.81 µM (inactive), the GI50 (UO-31) was > 100 µM (inactive) and the GI50 (SNB-19) was > 100 µM (inactive). For the same compound, the GI50 (ACHN) was > 100 µM (inactive), the GI50 (SK-MEL-2) was > 100 µM (inactive) and the GI50 (KM-20L2) was > 100 µM (inactive). For the same compound, the GI50 (HCC 2998) was > 100 µM (inactive), the GI50 (UACC-257) was 42.8 µM (inactive) and the GI50 (M19-MEL) was 5.13 µM (inactive). The GI50 (COLO 205) was 35.6 µM (inactive), the GI50 (SF-295) was > 100 µM (inactive) and the GI50 (HOP-92) was 2.4 µM (inactive). For the same compound, the GI50 (HCT-15) was over 100 µM, the GI50 (SW-620) was > 100 µM (inactive) and the GI50 (OVCAR-5) was > 100 µM (inactive). The GI50 (HL-60) was > 100 µM (inactive), the GI50 (SNB-75) was 65.8 µM (inactive) and the GI50 (DMS-114) was > 100 µM (inactive). For the same compound, the GI50 (LXFL 529) was > 100 µM (inactive).
CN(C)c1ncnc2c1Cc1ccccc1C(=O)N2C was tested, and the GI50 (HCT-116) was > 100 µM (inactive), the GI50 (HOP-18) was > 100 µM (inactive) and the GI50 (NCI-H226) was > 100 µM (inactive). For the same compound, the GI50 (MOLT-4) was > 100 µM (inactive), the GI50 (XF498) was > 100 µM (inactive) and the GI50 (Malme-3M) was > 100 µM (inactive). The GI50 (HOP-62) was > 100 µM (inactive), the GI50 (SN12C) was > 100 µM (inactive) and the GI50 (SR) was > 100 µM (inactive). The GI50 (SK-MEL-28) was > 100 µM (inactive), the GI50 (DLD-1) was > 100 µM (inactive) and the GI50 (786-0) was > 100 µM (inactive). The GI50 (M14) was > 100 µM (inactive), the GI50 (KM12) was > 100 µM (inactive) and the GI50 (OVCAR-8) was > 100 µM (inactive). The GI50 (TK-10) was > 100 µM (inactive), the GI50 (IGROV-1) was > 100 µM (inactive) and the GI50 (RXF 631) was > 100 µM (inactive). The GI50 (A549) was > 100 µM (inactive), the GI50 (EKVX) was > 100 µM (inactive) and the GI50 (SK-MEL-5) was > 100 µM (inactive). The GI50 (OVCAR-3) was > 100 µM (inactive), the GI50 (K562) was > 100 µM (inactive) and the GI50 (NCI-H522) was > 100 µM (inactive). The GI50 (SF-268) was > 100 µM (inactive), the GI50 (SK-OV-3) was > 100 µM (inactive) and the GI50 (CAKI-1) was > 100 µM (inactive). For the same compound, the GI50 (LOX IMVI) was > 100 µM (inactive), the GI50 (NCI-H460) was > 100 µM (inactive) and the GI50 (UACC-62) was > 100 µM (inactive). The GI50 (NCI-H23) was > 100 µM (inactive), the GI50 (SNB-78) was > 100 µM (inactive) and the GI50 (U-251) was > 100 µM (inactive). For the same compound, the GI50 (HT-29) was > 100 µM (inactive), the GI50 (CCRF-CEM) was > 100 µM (inactive) and the GI50 (SF-539) was > 100 µM (inactive). For the same compound, the GI50 (RPMI-8226) was > 100 µM (inactive), the GI50 (RXF 393) was > 100 µM (inactive) and the GI50 (UO-31) was > 100 µM (inactive). For the same compound, the GI50 (SNB-19) was > 100 µM (inactive), the GI50 (ACHN) was > 100 µM (inactive) and the GI50 (SK-MEL-2) was > 100 µM (inactive). The GI50 (KM-20L2) was > 100 µM (inactive), the GI50 (HCC 2998) was > 100 µM (inactive) and the GI50 (UACC-257) was > 100 µM (inactive). The GI50 (M19-MEL) was > 100 µM (inactive), the GI50 (DMS-273) was > 100 µM (inactive) and the GI50 (COLO 205) was > 100 µM (inactive). The GI50 (SF-295) was > 100 µM (inactive), the GI50 (HOP-92) was > 100 µM (inactive) and the GI50 (SW-620) was > 100 µM (inactive). The GI50 (OVCAR-4) was > 100 µM (inactive), the GI50 (OVCAR-5) was > 100 µM (inactive) and the GI50 (HL-60) was > 100 µM (inactive). For the same compound, the GI50 (SNB-75) was > 100 µM (inactive), the GI50 (DMS-114) was > 100 µM (inactive) and the GI50 (LXFL 529) was > 100 µM (inactive).
